Six molecules from patent US12357604B2, “Topical formulations of cannabinoids and use thereof in the treatment of pain” (INMED PHARMACEUTICALS INC., priority 2017, dated 2025) can be followed below.

In data set [1] the test system is masseter muscle mechanoreceptors. Put plainly: In vivo electrophysiology: mechanical threshold of mechanoreceptors. The arrangement: species or system Sprague-Dawley rats. The settings on record: for MT of masseter muscle mechanoreceptors on co-administration of THC with CB1 or CB2 antagonist: THC 1 mg/ml with AM251 or AM630 (1:0.5 and 1:1 mg/ml), intramuscular; for MT of masseter muscle mechanoreceptors: anesthetized rats, MT at 10, 30, 60, 120 min, 6 mechanoreceptors/group. The method, then: In vivo electrophysiology recordings of single ganglion neurons that innervate the craniofacial muscles were performed to investigate the mechanism of action of peripherally injected cannabinoids. Rats (n=6/group) from the behavioral experiments were used for subsequent in vivo electrophysiological experiments. Recordings were performed at least 7 days after the behavioral experiments and experiments were conducted on the PBS-injected masseter muscles (right side) of the rats to minimize potential residual effects of the previous cannabinoid treatments.
Rats were anesthetized with isoflurane (2-2.5% in oxygen 97-98%; AErrane; Baxter) and surgically prepared for electrophysiological recording. Heart rate, blood pressure and body temperature were monitored and a trachea tube was inserted for ventilation throughout the experiment. The hair of the face was shaved and the animal's head was positioned in a stereotaxic frame.
A parylene-coated tungsten microelectrode (0.10″, 2 MΩ, A-M Systems Inc.) was lowered into the trigeminal ganglion through the brain via a small trephination in the skull. An incision was made over the neck to expose the brain stem, and the dura was removed to allow access for a stimulating electrode to contact the caudal brain stem. Mechanoreceptors innervating craniofacial muscles (masseter and temporalis) were identified by mechanical probing using a fine-tipped cotton swab. Antidromic collisions were performed to confirm projection of the muscle fiber to the caudal brain stem (16, 30).
A stimulating electrode (parylene-coated tungsten microelectrode, 0.10″, 2 MΩ, A-M Systems Inc.) was lowered into the ipsilateral caudal brainstem and a constant-current electrical stimulus (100 μs biphasic pulse, 10-90 μA, 0.5 Hz) was applied to evoke antidromic action potentials. Orthodromic action potentials were evoked by mechanical stimulation of the tissue. […] The straight line distance between the stimulating and recording electrodes was divided by the latency of the antidromic action potential to estimate conduction velocity. MT was assessed with an electronic von Frey hair (IITC Life Science) by applying mechanical stimuli at 1 min intervals for 10 min to obtain baseline threshold. After baseline measurement, treatment was administered and MT was reassessed at 10, 30, 60, and 120 minutes thereafter. At the end of the experiments, animals were euthanized with pentobarbital (Nembutal 100 mg/kg, Abbott Laboratories, Chicago, IL).
(§1) For the immunohistochemistry experiment, the frequency of expression of CB1, CB2 and TRPV1, respectively, in trigeminal ganglion neurons between NGF and vehicle-injected sides was analyzed with a paired Student's t-test. For the behavioral and electrophysiological experiments, MT from NGF and vehicle-injected sides was analyzed with a two-way repeated measures analysis of variance (ANOVA) with time and treatment as factors. Relative mechanical activation threshold (Rel MT) was calculated as 100×Post-treatment MT/Baseline MT. Post hoc Holm Sidak's multiple comparison tests were used to compare post injection mechanical thresholds between treatment groups at each time point. One-way repeated measures ANOVA on ranks was used to analyze test scores in the inverted screen tests. A probability level of 0.05 was considered significant for all tests. Error bars represented standard error of the mean.

Data set [2] concerns NGF-induced sensitization in female rat masseter muscle. Kind of data set: Behavioral mechanical threshold (electronic von Frey) of NGF-sensitized masseter muscle. In kind it is in vivo, Sprague-Dawley rats. The settings on record: for Effect on NGF-induced mechanical sensitization (masseter muscle mechanical threshold, MT): intramuscular injection 10 μl, into NGF-injected masseter 3 days after NGF, MT at 10, 30, 60, 120 min, n=6/group; for MT of contralateral masseter muscles: after intramuscular cannabinoid injection into the NGF-injected side (THC 1 mg/ml, CBD 5 mg/ml, CBN 1 mg/ml).
Excerpt: Female (259-350 g, n=55) Sprague-Dawley rats were used for all experiments. Animals were housed in groups of two with a 12-h light/dark cycle. Food and water were given ad libitum. All animal procedures were reviewed and approved by the University of British Columbia Animal Care Committee.
Appropriate volumes of each solution were evaporated under nitrogen gas, and subsequently re-solubilized with 4% Tween 80 in isotonic saline to final concentrations used for injection.
Three days before behavioral experiments, rats received an injection of NGF (25 μg/ml, 10 μl, Sigma, St. Louis, MO) or vehicle (phosphate buffered saline, PBS, 10 μl) into the left and right masseter muscles, respectively, under brief isoflurane anesthesia. […] This is accompanied by an increase in NMDA receptor expression in peripheral trigeminal ganglion neurons with a peak at three days after injection (15). […] The masseter muscle region was shaved prior to injection and the injection sites were marked with a permanent marker for subsequent identification. The concentration of NGF was selected based on the concentration used in previous human experimental pain studies and experiments in rats (15, 24, 25, 26, 27). The investigator was blinded to the identity of the treatment groups until after all data was collected.
MT was assessed with a rigid electronic von Frey hair (IITC Life Science, Woodland Hills, CA). Before NGF injection, rats were habituated to restraint in a towel. […] The mechanical test stimulus was applied at 1 min intervals for 5 min and the average was calculated for further analysis. MT was measured daily for 5 days prior to the start of the experiment to determine that measurements were stable. MT readings recorded prior to NGF injection were used as naïve baseline. […] On the test day, a post-NGF injection baseline (NGF baseline) was recorded before injection of cannabinoid treatment groups. After treatment injections, MT was measured at 10, 30, 60, and 120 min after injection.
as §1

The test system of data set [3] is impaired motor function in rats. Kind of data set: Inverted screen test. The format is in vivo, Sprague-Dawley rats. Particulars: after intramuscular injection; for Impairment of motor functions in the inverted screen tests: tested at 10, 30, 60 and 120 min, n=4/group; for Inverted screen test median score: score 0 climbed to top, 1 held on upside down, 2 fell. The method, then: A modified version of the inverted screen test was performed to evaluate impaired motor function in rats (28, 29). Rats (n=4/group) were placed on a screen (185 mm×290 mm) with 5 mm diameter holes and the screen was slowly inverted 180 degrees until the rats were suspended upside down on the bottom of the screen. […] The rats were trained how to perform the test daily for three days before they were tested.
as §1

The test system of data set [4] is mental nerve ligation model. Put plainly: Topical THC in mental nerve ligation model. The format is in vivo, mice. Particulars: topical THC 1% in a PLO-gel cream base. The method, then: FIG. 14 illustrates the effect of topical THC (1%) in a mental nerve ligation model. Neuropathic pain behavior was measured by observing total facial grooming in naïve and post-surgical mice after application of vehicle or THC.
FIG. 15 illustrates the effect of topical THC (1%) in a mental nerve ligation model. Neuropathic pain behavior was measured by observing mechanical threshold response in naïve and post-surgical mice after application of vehicle or THC.

Setting [5] is: intramuscular injection 1 mg/ml.

Entries after “also recorded” stand apart in the source; their conditions may differ.

For the molecule `Cc1c(C(=O)NN2CCCCC2)nn(-c2ccc(Cl)cc2Cl)c1-c1ccc(I)cc1` [AM251, 1-(2,4-dichlorophenyl)-5-(4-iodophenyl)-4-methyl-N-1-piperidinyl-1H-pyrazole-3-carboxamide], the “MT of masseter muscle mechanoreceptors on co-administration of THC with CB1 or CB2 antagonist” value in data set [1] is reported as “attenuated the increase in MT mediated by THC alone”.

`COc1ccc(C(=O)c2c(C)n(CCN3CCOCC3)c3cc(I)ccc23)cc1` [AM630, [6-iodo-2-methyl-1-[2-(4-morpholinyl)ethyl]-1H-indol-3-yl](4-methoxyphenyl)-methanone]: the “MT of masseter muscle mechanoreceptors on co-administration of THC with CB1 or CB2 antagonist” value in data set [1] is listed as “not different from THC alone”.

Take `CCCCCc1cc(O)c2c(c1)OC(C)(CCC=C(C)C)C=C2` (stereo not shown) [CBC, Cannabichromene]: the “Effect on NGF-induced mechanical sensitization (masseter muscle mechanical threshold, MT)” value (“Effect” below) in data set [2] (1 mg/ml) is given as “No effect on MT”. Further, in data set [3], the “Impairment of motor functions in the inverted screen tests” value (“Impairment of motor functions” below) is given as “No impairment of motor functions” and the “Inverted screen test median score” value is on record as 0.

As to `C=C(C)C1CCC(C)=CC1c1c(O)cc(CCCCC)cc1O` (stereo not shown) [CBD, 2-(6-isopropenyl-3-methyl-2-cyclohexen-1-yl)-5-pentyl-1,3-benzenediol], the “MT of masseter muscle mechanoreceptors” value in data set [1] (setting [5]) was “not 1 mg/ml, significantly increased MT”; in data set [1] (intramuscular injection 5 mg/ml) it was “significantly increased MT, 30 min after injection; also recorded: Significant differences”. The “MT of contralateral masseter muscles” value in data set [2] is reported as “No change in mechanical threshold”. In addition, the “Effect” value in data set [2] (1 mg/ml) is “had no effect on NGF-induced mechanical sensitization”; in data set [2] (5 mg/ml), “significantly reversed NGF-induced sensitization at 10 and 30 min after injection; also recorded: Significant differences”. In addition, the “Impairment of motor functions” value in data set [3] was “No impairment of motor functions”. The “Inverted screen test median score” value in data set [3] worked out at 0.

`CCCCCc1cc(O)c2c(c1)OC(C)(C)c1ccc(C)cc1-2` [CBN, 6,6,9-trimethyl-3-pentylbenzo[c]chromen-1-ol]: in data set [1] (AUC of MT data of FIGS. 9-12, compared to the other indicated treatments), the “Area under the curve (AUC) analysis of the electrophysiological data” value is on record as “reduction in pain response”. In data set [1] (setting [5]), the “MT of masseter muscle mechanoreceptors” value is “significantly increased MT at 30 and 60 min after injection; also recorded: Significant differences”. The “MT of contralateral masseter muscles” value in data set [2] is reported as “No change in mechanical threshold”. In addition, in data set [2] (1 mg/ml), the “Effect” value is “significant increase in MT at 10 min after injection compared to NGF baseline; also recorded: Significant differences”. In addition, in data set [3], the “Impairment of motor functions” value is listed as “No impairment of motor functions” and the “Inverted screen test median score” value was found to be 0.

As for `CCCCCc1cc(O)c2c(c1)OC(C)(C)[C@@H]1CCC(C)=C[C@@H]21` [THC, delta-9-tetrahydrocannabinol], in data set [1] (setting [5]), the “MT of masseter muscle mechanoreceptors” value is “significantly increased the MT of mechanoreceptors at 10, 30 and 60 min after injection; also recorded: Significant differences”. For the same molecule, in data set [4], the “Mechanical allodynia in the lower lip skin (mechanical threshold response)” value is reported as “reversed mechanical allodynia” and the “Neuropathic pain behavior (facial grooming)” value is “reduced neuropathic pain behavior”. Also, the “MT of contralateral masseter muscles” value in data set [2] is reported as “No change in mechanical threshold”. Further, in data set [2] (1 mg/ml), the “Effect” value is “significantly reversed NGF-induced sensitization at 10 and 30 min after injection; also recorded: Significant differences”. For the same molecule, in data set [3], the “Impairment of motor functions” value was “No impairment of motor functions” and the “Inverted screen test median score” value is recorded as 0.
